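The compound was tested at five concentrations on cells cultured in 96-well plates, with a 48-hour exposure period. GI50 marks 50% less growth. TGI: total growth inhibition.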
Assays:
Assay in all cases: NCI anticancer screen, dose series, 48 h
[1] = test system: OVCAR-8 ovarian
[2] = test system: SK-MEL-5 melanoma
[3] = test system: OVCAR-4 ovarian
[4] = test system: NCI/ADR-RES ovarian
[5] = test system: MDA-MB-231 breast
[6] = test system: HOP-92 NSCLC
[7] = test system: HOP-62 NSCLC
[8] = test system: SN12C renal
[9] = test system: LOX IMVI melanoma
[10] = test system: MDA-MB-435
[11] = test system: SR leukemia
[12] = test system: TK-10 renal
[13] = test system: U251 CNS
[14] = test system: OVCAR-5 ovarian
[15] = test system: ACHN renal
[16] = test system: MALME-3M melanoma
[17] = test system: 786-0 renal
[18] = test system: SNB-19 CNS
[19] = test system: UACC-62 melanoma
[20] = test system: CCRF-CEM leukemia
[21] = test system: NCI-H23 lung
[22] = test system: EKVX NSCLC
[23] = test system: SK-OV-3 ovarian
[24] = test system: K-562 leukemia
[25] = test system: SF-295 CNS
[26] = test system: HT29 colon
[27] = test system: UO-31 renal
[28] = test system: HS 578T breast
[29] = test system: IGROV1 ovarian
[30] = test system: COLO 205 colon
[31] = test system: KM12 colon
[32] = test system: HCT-15 colon
[33] = test system: NCI-H522 lung
[34] = test system: SW-620 colon
[35] = test system: PC-3 prostate
[36] = test system: NCI-H226 lung
[37] = test system: RPMI-8226 leukemia
[38] = test system: SF-268 CNS
[39] = test system: SNB-75 CNS
[40] = test system: M14 melanoma
[41] = test system: SK-MEL-2 melanoma
[42] = test system: MDA-N
[43] = test system: MOLT-4 leukemia
[44] = test system: HCT-116 colon
[45] = test system: SK-MEL-28 melanoma
[46] = test system: MCF7 breast
[47] = test system: OVCAR-3 ovarian
[48] = test system: A498 renal
[49] = test system: A549 NSCLC
[50] = test system: DU-145 prostate
[51] = test system: HCC-2998 colon
[52] = test system: CAKI-1 renal
[53] = test system: BT-549 breast
[54] = test system: UACC-257 melanoma
[55] = test system: SF-539 CNS
[56] = test system: NCI-H460 lung
[57] = test system: RXF 393 renal
[58] = test system: T-47D breast
[59] = test system: HL-60(TB) leukemia

## C/C1=C\[C@H](C)C[C@H](C)OC(=O)C[C@H](c2ccc(O)cc2)NC(=O)[C@H](Cc2ccc(O)c(Br)c2)N(C)C(=O)[C@H](C)NC(=O)[C@@H](C)C1
[1]
  TGI: > 25000 nM
[2]
  TGI: > 25000 nM
[3]
  TGI: > 25000 nM
[4]
  TGI: > 25000 nM
[5]
  TGI: > 25000 nM
[6]
  TGI: > 25000 nM
[7]
  TGI: > 25000 nM
[8]
  TGI: > 25000 nM
[9]
  TGI: > 25000 nM
[10]
  TGI: > 25000 nM
[11]
  TGI: > 25000 nM
[12]
  TGI: > 25000 nM
[13]
  TGI: > 25000 nM
[14]
  TGI: > 25000 nM
[15]
  TGI: > 25000 nM
[16]
  TGI: > 25000 nM
[17]
  TGI: > 25000 nM
[18]
  TGI: > 25000 nM
[19]
  TGI: > 25000 nM
[20]
  TGI: > 25000 nM
[21]
  TGI: > 25000 nM
[22]
  TGI: > 25000 nM
[23]
  TGI: > 25000 nM
[24]
  TGI: > 25000 nM
[25]
  TGI: > 25000 nM
[26]
  TGI: > 25000 nM
[27]
  TGI: > 25000 nM
[28]
  TGI: > 25000 nM
[29]
  TGI: > 25000 nM
[30]
  TGI: > 25000 nM
[31]
  TGI: > 25000 nM
[32]
  TGI: > 25000 nM
[33]
  TGI: > 25000 nM
[34]
  TGI: > 25000 nM
[35]
  TGI: > 25000 nM
[36]
  TGI: > 25000 nM
[37]
  TGI: > 25000 nM
[38]
  TGI: > 25000 nM
[39]
  TGI: > 25000 nM
[40]
  TGI: > 25000 nM
[41]
  TGI: > 25000 nM
[42]
  TGI: > 25000 nM
[43]
  TGI: > 25000 nM
[44]
  TGI: > 25000 nM
[45]
  TGI: > 25000 nM
[46]
  TGI: > 25000 nM
[47]
  TGI: > 25000 nM
[48]
  TGI: > 25000 nM
[49]
  TGI: > 25000 nM
[50]
  TGI: > 25000 nM

## COC(=O)c1ccc2c(c1)C(=O)c1c-2n(CCCN)c(=O)c2cc([N+](=O)[O-])ccc12
[1]
  GI50: < 34.4 nM
  TGI: 864 nM
[2]
  GI50: < 40.5 nM
  TGI: 800 nM
[3]
  TGI: 647 nM
[51]
  GI50: < 10 nM
  TGI: 58 nM
[4]
  GI50: < 29 nM
  TGI: 682 nM
[5]
  GI50: 426 nM
  TGI: 960 nM
[52]
  GI50: < 10 nM
  TGI: 1360 nM
[6]
  GI50: 301 nM
  TGI: 1900 nM
[7]
  GI50: < 16.1 nM
  TGI: 532 nM
[8]
  GI50: < 23.3 nM
  TGI: 1360 nM
[9]
  GI50: < 11.5 nM
  TGI: 154 nM
[10]
  GI50: 105 nM
  TGI: 1440 nM
[11]
  GI50: < 10 nM
  TGI: 367 nM
[12]
  GI50: 1050 nM
  TGI: 2920 nM
[13]
  GI50: < 12.7 nM
  TGI: 368 nM
[14]
  GI50: 139 nM
  TGI: 661 nM
[15]
  GI50: < 10 nM
  TGI: 204 nM
[16]
  GI50: 38 nM
  TGI: 1360 nM
[17]
  GI50: < 25 nM
  TGI: 302 nM
[18]
  GI50: < 20.5 nM
  TGI: 1870 nM
[19]
  GI50: < 25.4 nM
  TGI: 398 nM
[20]
  GI50: < 10 nM
  TGI: 75.9 nM
[21]
  GI50: < 31.8 nM
  TGI: 1280 nM
[53]
  GI50: 265 nM
  TGI: 1770 nM
[22]
  GI50: 81.1 nM
  TGI: 857 nM
[23]
  GI50: 33.2 nM
  TGI: 1650 nM
[24]
  GI50: 20.6 nM
  TGI: 2020 nM
[25]
  GI50: < 10 nM
[26]
  GI50: < 23.6 nM
  TGI: 436 nM
[54]
  GI50: 234 nM
  TGI: 1230 nM
[27]
  GI50: < 13.7 nM
  TGI: < 40.5 nM
[28]
  GI50: 422 nM
  TGI: 1150 nM
[29]
  GI50: < 15.6 nM
  TGI: 352 nM
[55]
  GI50: < 19.6 nM
  TGI: 210 nM
[30]
  GI50: 73.7 nM
  TGI: 1690 nM
[31]
  GI50: 67.5 nM
  TGI: 940 nM
[32]
  GI50: 62.5 nM
  TGI: 560 nM
[56]
  GI50: 43.4 nM
  TGI: 1100 nM
[33]
  GI50: < 30.6 nM
  TGI: 588 nM
[34]
  GI50: < 10 nM
  TGI: 1270 nM
[57]
  GI50: < 34.5 nM
  TGI: 118 nM
[35]
  GI50: < 37.3 nM
  TGI: 1490 nM
[36]
  GI50: 102 nM
  TGI: 1670 nM
[37]
  GI50: < 10 nM
  TGI: 117 nM
[38]
  GI50: < 17.7 nM
  TGI: 1400 nM
[39]
  GI50: < 34.8 nM
[40]
  GI50: < 22.2 nM
  TGI: 460 nM
[58]
  GI50: < 17.3 nM
  TGI: 1340 nM
[41]
  TGI: 519 nM
[43]
  GI50: < 10 nM
  TGI: 833 nM
[44]
  GI50: 33.7 nM
  TGI: 959 nM
[45]
  TGI: 810 nM
[46]
  GI50: < 10 nM
  TGI: 214 nM
[59]
  GI50: < 19.4 nM
  TGI: 1390 nM
[47]
  GI50: 242 nM
  TGI: 1550 nM
[48]
  GI50: 116 nM
  TGI: 1440 nM
[49]
  GI50: < 30 nM
  TGI: 894 nM
[50]
  GI50: < 15.9 nM
  TGI: 391 nM

From PubChem BioAssay (NCI)
